Converted amounts (≈) assume the structure as drawn.
Legend:
[1] = target: DNA gyrase subunit A/DNA gyrase subunit B (Mycobacterium tuberculosis (strain ATCC 25618 / H37Rv), UniProt P9WG45+P9WG47); test: Inhibition of Mycobacterium tuberculosis DNA gyrase assessed as inhibition of DNA supercoiling activity using relaxed pBR322 as substrate incubated for 30 mins by ethidium bromide staining based agarose gel electrophoresis
[2] = Cytotoxicity against mouse RAW264.7 cells assessed as inhibition of cell viability at 100 uM measured after 48 hrs by MTT assay relative to control; assay type: toxicity; settings: read-out: INH
[3] = system: Mycobacterium tuberculosis; test: Antimycobacterial activity against Mycobacterium tuberculosis incubated for 7 days by alamar blue assay; assay type: functional; settings: 168 h
[4] = Cytotoxicity against mouse RAW264.7 cells assessed as inhibition of cell viability at 100 uM measured after 72 hrs by MTT assay relative to control; assay type: toxicity; settings: read-out: INH

Sequence of DNA gyrase subunit A/DNA gyrase subunit B (P9WG45 whole entry): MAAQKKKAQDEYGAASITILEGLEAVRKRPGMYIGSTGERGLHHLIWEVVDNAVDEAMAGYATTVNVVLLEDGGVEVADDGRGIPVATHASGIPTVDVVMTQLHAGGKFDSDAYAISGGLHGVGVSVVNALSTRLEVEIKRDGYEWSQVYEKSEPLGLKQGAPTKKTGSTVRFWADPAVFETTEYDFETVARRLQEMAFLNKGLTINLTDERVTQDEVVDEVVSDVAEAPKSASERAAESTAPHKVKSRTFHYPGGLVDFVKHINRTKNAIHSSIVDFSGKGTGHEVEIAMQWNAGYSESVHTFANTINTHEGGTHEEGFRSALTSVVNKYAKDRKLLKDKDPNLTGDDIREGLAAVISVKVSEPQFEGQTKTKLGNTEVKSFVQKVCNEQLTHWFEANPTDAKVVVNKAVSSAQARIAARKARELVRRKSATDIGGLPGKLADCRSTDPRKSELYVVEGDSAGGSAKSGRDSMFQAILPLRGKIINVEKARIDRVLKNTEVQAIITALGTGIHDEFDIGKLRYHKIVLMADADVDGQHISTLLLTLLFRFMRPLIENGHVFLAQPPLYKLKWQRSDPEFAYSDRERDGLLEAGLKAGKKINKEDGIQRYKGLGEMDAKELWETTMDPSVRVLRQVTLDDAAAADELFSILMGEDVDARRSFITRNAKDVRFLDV
Sequence of DNA gyrase subunit A/DNA gyrase subunit B (P9WG47 whole entry): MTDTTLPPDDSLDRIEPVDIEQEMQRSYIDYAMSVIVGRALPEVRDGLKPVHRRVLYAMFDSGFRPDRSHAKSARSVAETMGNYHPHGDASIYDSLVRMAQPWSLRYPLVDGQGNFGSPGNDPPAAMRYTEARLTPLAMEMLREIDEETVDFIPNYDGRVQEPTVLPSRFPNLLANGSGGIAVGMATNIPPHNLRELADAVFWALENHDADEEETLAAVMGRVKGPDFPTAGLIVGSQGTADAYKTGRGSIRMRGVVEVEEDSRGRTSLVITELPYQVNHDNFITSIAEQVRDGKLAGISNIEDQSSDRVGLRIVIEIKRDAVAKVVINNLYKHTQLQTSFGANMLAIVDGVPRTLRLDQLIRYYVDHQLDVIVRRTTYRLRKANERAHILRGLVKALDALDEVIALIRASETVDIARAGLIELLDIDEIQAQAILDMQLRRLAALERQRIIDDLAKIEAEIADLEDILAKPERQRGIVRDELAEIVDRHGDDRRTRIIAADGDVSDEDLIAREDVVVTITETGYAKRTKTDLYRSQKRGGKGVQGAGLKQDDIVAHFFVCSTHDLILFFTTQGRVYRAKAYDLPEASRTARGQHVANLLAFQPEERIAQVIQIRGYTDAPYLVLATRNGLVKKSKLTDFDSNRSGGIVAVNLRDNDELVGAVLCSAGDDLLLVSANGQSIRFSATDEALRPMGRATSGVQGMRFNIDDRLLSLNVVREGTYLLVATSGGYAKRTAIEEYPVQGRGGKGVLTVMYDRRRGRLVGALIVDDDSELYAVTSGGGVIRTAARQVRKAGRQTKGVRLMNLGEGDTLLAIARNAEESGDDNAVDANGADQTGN

In the case of `O=C(Nc1ccc([N+](=O)[O-])cc1)N1CCN(c2nc(=O)c3cc(Cl)ccc3s2)CC1`, the IC50 [1] is reported as 4.61 µM, the cytotoxicity at 48 h, 100 µM [2] is reported as 3.56% and the MIC [3] is reported as 5.24 µM (≈ 2.34 µg/mL).

In the case of `O=C1C(=O)N(CCN2CCN(NCc3ccccc3)CC2)c2ccccc21`, the cytotoxicity at 72 h, 100 µM [4] is reported as 7.6% and the IC50 [1] is reported as > 50 µM.

For `O=c1nc(N2CCN(Cc3ccc([N+](=O)[O-])cc3)CC2)sc2ccc(C(F)(F)F)cc12`, the IC50 [1] was 4.55 µM, the cytotoxicity at 48 h, 100 µM [2] was 14.6% and the MIC [3] was 5.19 µM (≈ 2.34 µg/mL).

In the case of `COc1ccc2c(c1)C(=O)C(=O)N2CCN1CCN(NCc2ccccc2F)CC1`, the cytotoxicity at 72 h, 100 µM [4] is reported as 16.3% and the IC50 [1] is reported as > 50 µM.

Compound `O=C(Nc1ccc(Cl)cc1)N1CCN(c2nc(=O)c3cc(Cl)ccc3s2)CC1` has an IC50 [1] of 10.5 µM, a cytotoxicity at 48 h, 100 µM [2] of 2.56% and an MIC [3] of 17.9 µM (≈ 7.8 µg/mL).

For `O=C(Nc1ccc([N+](=O)[O-])cc1)N1CCN(c2nc(=O)c3cc(C(F)(F)F)ccc3s2)CC1`, the IC50 [1] was 26.5 µM and the MIC [3] was 52.1 µM (≈ 25 µg/mL).

For `O=C(Nc1ccc(Cl)cc1)N1CCN(c2nc(=O)c3cc([N+](=O)[O-])ccc3s2)CC1`, the IC50 [1] was 23.7 µM and the MIC [3] was 28 µM (≈ 12.5 µg/mL).

In the case of `COc1ccc2c(c1)C(=O)C(=O)N2CCN1CCN(NCc2ccc([N+](=O)[O-])o2)CC1`, the cytotoxicity at 72 h, 100 µM [4] is reported as 31.6% and the IC50 [1] is reported as > 50 µM.

`O=C(Nc1ccccc1)N1CCN(c2nc(=O)c3cc(C(F)(F)F)ccc3s2)CC1` showed an IC50 [1] of 11 µM and an MIC [3] of 19.2 µM (≈ 8.33 µg/mL).

With `O=c1nc(N2CCN(C(=S)Nc3ccccc3)CC2)sc2ccc(Cl)cc12` the IC50 [1] was 10.9 µM, the cytotoxicity at 48 h, 100 µM [2] was 2.35% and the MIC [3] was 11.2 µM (≈ 4.68 µg/mL).

`O=c1nc(N2CCN(C(=S)Nc3ccc([N+](=O)[O-])cc3)CC2)sc2ccc(Cl)cc12` showed an IC50 [1] of 6.23 µM, a cytotoxicity at 48 h, 100 µM [2] of 1.45% and an MIC [3] of 13.5 µM (≈ 6.25 µg/mL).

`O=c1nc(N2CCN(Cc3ccc([N+](=O)[O-])cc3)CC2)sc2ccc(Cl)cc12` gave an IC50 [1] of 7.33 µM, a cytotoxicity at 48 h, 100 µM [2] of 5.48% and an MIC [3] of 15 µM (≈ 6.25 µg/mL).

`O=c1nc(N2CCN(Cc3ccc([N+](=O)[O-])cc3)CC2)sc2ccc([N+](=O)[O-])cc12` showed an IC50 [1] of 4.21 µM, a cytotoxicity at 48 h, 100 µM [2] of 21.4% and an MIC [3] of 7.31 µM (≈ 3.12 µg/mL).

With `O=C1C(=O)N(CCN2CCN(NCc3ccccc3)CC2)c2ccc(Cl)cc21` the cytotoxicity at 72 h, 100 µM [4] was 22.3% and the IC50 [1] was > 50 µM.

With `Cc1ccc(CN2CCN(c3nc(=O)c4cc([N+](=O)[O-])ccc4s3)CC2)cc1` the IC50 [1] was 8.93 µM, the cytotoxicity at 48 h, 100 µM [2] was 26.5% and the MIC [3] was 15.8 µM (≈ 6.25 µg/mL).

In the case of `O=c1nc(N2CCN(Cc3ccccc3)CC2)sc2ccc(Cl)cc12`, the IC50 [1] is reported as 17.6 µM and the MIC [3] is reported as 33.6 µM (≈ 12.5 µg/mL).

For `O=c1nc(N2CCN(C(=S)Nc3ccc([N+](=O)[O-])cc3)CC2)sc2ccc([N+](=O)[O-])cc12`, the IC50 [1] was 2.59 µM, the cytotoxicity at 48 h, 100 µM [2] was 2.21% and the MIC [3] was 5.29 µM (≈ 2.5 µg/mL).

In the case of `O=C1C(=O)N(CCN2CCN(NCc3ccccc3)CC2)c2ccc(F)cc21`, the cytotoxicity at 72 h, 100 µM [4] is reported as 29.3% and the IC50 [1] is reported as > 50 µM.

For `O=c1nc(N2CCN(Cc3ccc(Cl)cc3)CC2)sc2ccc([N+](=O)[O-])cc12`, the IC50 [1] was 3.68 µM, the cytotoxicity at 48 h, 100 µM [2] was 1.56% and the MIC [3] was 5.99 µM (≈ 2.5 µg/mL).

For `CO[C@@H]1[C@@H](OC(N)=O)[C@@H](O)[C@H](Oc2ccc3c(O)c(NC(=O)c4ccc(O)c(CC=C(C)C)c4)c(=O)oc3c2C)OC1(C)C` [NOVOBIOCIN], the cytotoxicity at 48 h, 100 µM [2] was 7.56% and the MIC [3] was > 200 µM.

For `Cc1ccc(NC(=O)N2CCN(c3nc(=O)c4cc([N+](=O)[O-])ccc4s3)CC2)cc1`, the IC50 [1] was 9.62 µM, the cytotoxicity at 48 h, 100 µM [2] was 16.2% and the MIC [3] was 14.7 µM (≈ 6.25 µg/mL).

With `Cc1ccc2c(c1)C(=O)C(=O)N2CCN1CCN(NCc2ccccc2)CC1` the cytotoxicity at 72 h, 100 µM [4] was 19.7% and the IC50 [1] was > 50 µM.

`O=c1nc(N2CCN(Cc3ccc(Cl)cc3)CC2)sc2ccc(Cl)cc12` gave an IC50 [1] of 12.1 µM, a cytotoxicity at 48 h, 100 µM [2] of 5.36% and an MIC [3] of 15.4 µM (≈ 6.25 µg/mL).

For `O=c1nc(N2CCN(Cc3ccccc3)CC2)sc2ccc(C(F)(F)F)cc12`, the IC50 [1] was 11.5 µM and the MIC [3] was 15.4 µM (≈ 6.25 µg/mL).

`Cc1ccc(NC(=S)N2CCN(c3nc(=O)c4cc(Cl)ccc4s3)CC2)cc1` showed an IC50 [1] of 11.6 µM, a cytotoxicity at 48 h, 100 µM [2] of 2.48% and an MIC [3] of 14.5 µM (≈ 6.25 µg/mL).

For `Cc1ccc(NC(=O)N2CCN(c3nc(=O)c4cc(Cl)ccc4s3)CC2)cc1`, the IC50 [1] was 2.62 µM, the cytotoxicity at 48 h, 100 µM [2] was 5.14% and the MIC [3] was 6.02 µM (≈ 2.5 µg/mL).

`O=c1nc(N2CCN(Cc3ccccc3)CC2)sc2ccc([N+](=O)[O-])cc12` gave an IC50 [1] of 3.21 µM, a cytotoxicity at 48 h, 100 µM [2] of 5.41% and an MIC [3] of 4.08 µM (≈ 1.56 µg/mL).

With `O=C(Nc1ccc([N+](=O)[O-])cc1)N1CCN(c2nc(=O)c3cc([N+](=O)[O-])ccc3s2)CC1` the IC50 [1] was 9.11 µM, the cytotoxicity at 48 h, 100 µM [2] was 15.2% and the MIC [3] was 13.7 µM (≈ 6.24 µg/mL).

Work on `Cc1ccc(CN2CCN(c3nc(=O)c4cc(Cl)ccc4s3)CC2)cc1` yielded an IC50 [1] of 21.5 µM, a cytotoxicity at 48 h, 100 µM [2] of 2.36% and an MIC [3] of 24.2 µM (≈ 9.36 µg/mL).

`O=C(Nc1ccccc1)N1CCN(c2nc(=O)c3cc([N+](=O)[O-])ccc3s2)CC1` showed an IC50 [1] of 16.8 µM and an MIC [3] of 30.4 µM (≈ 12.5 µg/mL).

With `COc1ccccc1CNN1CCN(CCN2C(=O)C(=O)c3cc(F)ccc32)CC1` the cytotoxicity at 72 h, 100 µM [4] was 19.1% and the IC50 [1] was > 50 µM.

With `O=C1C(=O)N(CCN2CCN(NCc3ccc([N+](=O)[O-])o3)CC2)c2ccc(F)cc21` the cytotoxicity at 72 h, 100 µM [4] was 37.8% and the IC50 [1] was > 50 µM.

For `Cc1ccc(NC(=O)N2CCN(c3nc(=O)c4cc(C(F)(F)F)ccc4s3)CC2)cc1`, the IC50 [1] was 5.26 µM, the cytotoxicity at 48 h, 100 µM [2] was 7.56% and the MIC [3] was 11.5 µM (≈ 5.18 µg/mL).

Work on `O=c1nc(N2CCN(C(=S)Nc3ccc(Cl)cc3)CC2)sc2ccc([N+](=O)[O-])cc12` yielded an IC50 [1] of 0.51 µM, a cytotoxicity at 48 h, 100 µM [2] of 1.81% and an MIC [3] of 4.41 µM (≈ 2.04 µg/mL).

`O=c1nc(N2CCN(C(=S)Nc3ccc(Cl)cc3)CC2)sc2ccc(Cl)cc12` showed an IC50 [1] of 6.86 µM, a cytotoxicity at 48 h, 100 µM [2] of 25.6% and an MIC [3] of 6.92 µM (≈ 3.12 µg/mL).

`Cc1ccc(CN2CCN(c3nc(=O)c4cc(C(F)(F)F)ccc4s3)CC2)cc1` showed an IC50 [1] of 11.6 µM, a cytotoxicity at 48 h, 100 µM [2] of 18.6% and an MIC [3] of 16.7 µM (≈ 7.02 µg/mL).

With `O=C1C(=O)N(CCN2CCN(NCc3ccccc3F)CC2)c2ccc(Cl)cc21` the cytotoxicity at 72 h, 100 µM [4] was 17.6% and the IC50 [1] was > 50 µM.

For `O=C(Nc1ccc(Cl)cc1)N1CCN(c2nc(=O)c3cc(C(F)(F)F)ccc3s2)CC1`, the IC50 [1] was 10.5 µM, the cytotoxicity at 48 h, 100 µM [2] was 10.2% and the MIC [3] was 13.3 µM (≈ 6.25 µg/mL).

`O=c1nc(N2CCN(Cc3ccc(Cl)cc3)CC2)sc2ccc(C(F)(F)F)cc12` gave an IC50 [1] of 3.86 µM, a cytotoxicity at 48 h, 100 µM [2] of 8.45% and an MIC [3] of 6.31 µM (≈ 2.78 µg/mL).

In the case of `Cc1ccc(NC(=S)N2CCN(c3nc(=O)c4cc(C(F)(F)F)ccc4s3)CC2)cc1`, the IC50 [1] is reported as 4.51 µM, the cytotoxicity at 48 h, 100 µM [2] is reported as 16.4% and the MIC [3] is reported as 9.54 µM (≈ 4.43 µg/mL).

Work on `O=c1nc(N2CCN(C(=S)Nc3ccc(Cl)cc3)CC2)sc2ccc(C(F)(F)F)cc12` yielded an IC50 [1] of 4.23 µM, a cytotoxicity at 48 h, 100 µM [2] of 3.15% and an MIC [3] of 8.59 µM (≈ 4.17 µg/mL).

For `Cc1ccc2c(c1)C(=O)C(=O)N2CCN1CCN(NCc2ccccc2C(F)(F)F)CC1`, the cytotoxicity at 72 h, 100 µM [4] was 13.6% and the IC50 [1] was > 50 µM.

For `O=C(Nc1ccccc1)N1CCN(c2nc(=O)c3cc(Cl)ccc3s2)CC1`, the IC50 [1] was 17.5 µM, the cytotoxicity at 48 h, 100 µM [2] was 16.5% and the MIC [3] was 15.6 µM (≈ 6.25 µg/mL).

`O=c1nc(N2CCN(C(=S)Nc3ccccc3)CC2)sc2ccc(C(F)(F)F)cc12` gave an IC50 [1] of 0.83 µM, a cytotoxicity at 48 h, 100 µM [2] of 6.48% and an MIC [3] of 4.62 µM (≈ 2.08 µg/mL).

For `O=C1C(=O)N(CCN2CCN(NCc3cccc(Cl)c3Cl)CC2)c2ccc(F)cc21`, the cytotoxicity at 72 h, 100 µM [4] was 31.2% and the IC50 [1] was > 50 µM.

In the case of `Cc1ccc2c(c1)C(=O)C(=O)N2CCN1CCN(NCc2ccc([N+](=O)[O-])o2)CC1`, the cytotoxicity at 72 h, 100 µM [4] is reported as 27.8% and the IC50 [1] is reported as > 50 µM.

With `Cc1ccc(NC(=S)N2CCN(c3nc(=O)c4cc([N+](=O)[O-])ccc4s3)CC2)cc1` the IC50 [1] was 0.82 µM, the cytotoxicity at 48 h, 100 µM [2] was 4.22% and the MIC [3] was 2.83 µM (≈ 1.25 µg/mL).

For `COc1ccccc1CNN1CCN(CCN2C(=O)C(=O)c3ccccc32)CC1`, the cytotoxicity at 72 h, 100 µM [4] was 21.3% and the IC50 [1] was > 50 µM.

Source: ChEMBL document CHEMBL3875146, “Mycobacterium Tuberculosis (MTB) GyrB inhibitors: An attractive approach for developing novel drugs against TB” (Eur J Med Chem, 2016)
